In patent US20100267561A1, “HERBICIDAL PYRIDAZINONE DERIVATIVES” (priority 2007, published 2010):

Tests used:
Test in all cases: Test A pre-/postemergence plant response
Format in all cases: in vivo
[1] = tested on: canarygrass (Phalaris minor)
Summary of the method: (§1)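 Scores reflect visual plant injury relative to untreated controls on a 0–100 scale, recorded approximately 10 days after simultaneous preemergence soil spraying and postemergence spraying of one- to two-leaf seedlings grown in loam–sand.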

[2] = tested on: giant foxtail (Setaria faberi)
Summary of the method: as §1

[3] = tested on: barnyardgrass (Echinochloa crus-galli)
Summary of the method: as §1

[4] = tested on: corn (Zea mays)
Summary of the method: as §1

[5] = tested on: wheat (Triticum aestivum)
Summary of the method: as §1

[6] = tested on: pigweed (Amaranthus retroflexus)
Summary of the method: as §1

[7] = tested on: blackgrass (Alopecurus myosuroides)
Summary of the method: as §1

[8] = tested on: large crabgrass (Digitaria sanguinalis)
Summary of the method: as §1

[9] = Postemergence, 31 g ai/ha, 0 to 100 scale (0 no effect, 100 complete control)
[10] = Postemergence, 125 g ai/ha, 0 to 100 scale, 0 no effect, 100 complete control
[11] = Preemergence, 31 g ai/ha, 0 to 100 scale, 0 is no effect, 100 is complete control
[12] = Preemergence, 125 g ai/ha, 0 to 100 scale (0 no effect, 100 complete control)

COc1nn(C)c(=O)c(-n2nc(-c3ccc(Br)cc3)cc2C)c1O [Compound 93]
Plant response rating, Canarygrass [1, 9]: 80 | Plant response rating, Canarygrass [1, 10]: 100 | Plant response rating, Canarygrass [1, 11]: 10 | Plant response rating, Canarygrass [1, 12]: 90 | Plant response rating, Foxtail, Giant [2, 9]: 100 | Plant response rating, Foxtail, Giant [2, 10]: 100 | Plant response rating, Foxtail, Giant [2, 11]: 90 | Plant response rating, Foxtail, Giant [2, 12]: 100 | Plant response rating, Barnyardgrass [3, 9]: 100 | Plant response rating, Barnyardgrass [3, 10]: 100 | Plant response rating, Barnyardgrass [3, 11]: 20 | Plant response rating, Barnyardgrass [3, 12]: 100 | Plant response rating, Corn [4, 9]: 80 | Plant response rating, Corn [4, 10]: 100 | Plant response rating, Corn [4, 11]: 30 | Plant response rating, Corn [4, 12]: 60 | Plant response rating, Wheat [5, 9]: 70 | Plant response rating, Wheat [5, 10]: 80 | Plant response rating, Wheat [5, 11]: 50 | Plant response rating, Wheat [5, 12]: 80 | Plant response rating, Pigweed [6, 9]: 0 | Plant response rating, Pigweed [6, 10]: 0 | Plant response rating, Pigweed [6, 11]: 0 | Plant response rating, Pigweed [6, 12]: 0 | Plant response rating, Blackgrass [7, 9]: 90 | Plant response rating, Blackgrass [7, 10]: 100 | Plant response rating, Blackgrass [7, 11]: 30 | Plant response rating, Blackgrass [7, 12]: 100 | Plant response rating, Crabgrass, Large [8, 9]: 100 | Plant response rating, Crabgrass, Large [8, 10]: 100 | Plant response rating, Crabgrass, Large [8, 11]: 20 | Plant response rating, Crabgrass, Large [8, 12]: 100

CCc1cc(-c2ccc(C(F)(F)F)cc2)nn1-c1c(OC(=O)c2ccc(Cl)nc2)cnn(C)c1=O [Compound 94]
Plant response rating, Canarygrass [1, 9]: 70 | Plant response rating, Canarygrass [1, 10]: 100 | Plant response rating, Canarygrass [1, 11]: 70 | Plant response rating, Canarygrass [1, 12]: 90 | Plant response rating, Foxtail, Giant [2, 9]: 100 | Plant response rating, Foxtail, Giant [2, 10]: 100 | Plant response rating, Foxtail, Giant [2, 11]: 90 | Plant response rating, Foxtail, Giant [2, 12]: 100 | Plant response rating, Barnyardgrass [3, 9]: 100 | Plant response rating, Barnyardgrass [3, 10]: 100 | Plant response rating, Barnyardgrass [3, 11]: 50 | Plant response rating, Barnyardgrass [3, 12]: 100 | Plant response rating, Corn [4, 9]: 100 | Plant response rating, Corn [4, 10]: 100 | Plant response rating, Corn [4, 12]: 90 | Plant response rating, Wheat [5, 9]: 50 | Plant response rating, Wheat [5, 10]: 80 | Plant response rating, Wheat [5, 11]: 50 | Plant response rating, Wheat [5, 12]: 90 | Plant response rating, Pigweed [6, 9]: 0 | Plant response rating, Pigweed [6, 10]: 0 | Plant response rating, Pigweed [6, 11]: 0 | Plant response rating, Pigweed [6, 12]: 0 | Plant response rating, Blackgrass [7, 9]: 80 | Plant response rating, Blackgrass [7, 10]: 100 | Plant response rating, Blackgrass [7, 11]: 60 | Plant response rating, Blackgrass [7, 12]: 100 | Plant response rating, Crabgrass, Large [8, 9]: 90 | Plant response rating, Crabgrass, Large [8, 10]: 100 | Plant response rating, Crabgrass, Large [8, 11]: 70 | Plant response rating, Crabgrass, Large [8, 12]: 100

CCc1cc(-c2ccc(C(F)(F)F)cc2)nn1-c1c(OC(=O)C2CCCCC2)cnn(C)c1=O [Compound 95]
Plant response rating, Canarygrass [1, 9]: 90 | Plant response rating, Canarygrass [1, 10]: 100 | Plant response rating, Canarygrass [1, 11]: 70 | Plant response rating, Canarygrass [1, 12]: 100 | Plant response rating, Foxtail, Giant [2, 9]: 100 | Plant response rating, Foxtail, Giant [2, 10]: 100 | Plant response rating, Foxtail, Giant [2, 11]: 100 | Plant response rating, Foxtail, Giant [2, 12]: 100 | Plant response rating, Barnyardgrass [3, 9]: 100 | Plant response rating, Barnyardgrass [3, 10]: 100 | Plant response rating, Barnyardgrass [3, 11]: 50 | Plant response rating, Barnyardgrass [3, 12]: 100 | Plant response rating, Corn [4, 9]: 90 | Plant response rating, Corn [4, 10]: 100 | Plant response rating, Corn [4, 11]: 40 | Plant response rating, Corn [4, 12]: 90 | Plant response rating, Wheat [5, 9]: 70 | Plant response rating, Wheat [5, 10]: 80 | Plant response rating, Wheat [5, 11]: 80 | Plant response rating, Wheat [5, 12]: 90 | Plant response rating, Pigweed [6, 9]: 0 | Plant response rating, Pigweed [6, 10]: 0 | Plant response rating, Pigweed [6, 11]: 0 | Plant response rating, Pigweed [6, 12]: 0 | Plant response rating, Blackgrass [7, 9]: 70 | Plant response rating, Blackgrass [7, 10]: 100 | Plant response rating, Blackgrass [7, 11]: 90 | Plant response rating, Blackgrass [7, 12]: 100 | Plant response rating, Crabgrass, Large [8, 9]: 90 | Plant response rating, Crabgrass, Large [8, 10]: 100 | Plant response rating, Crabgrass, Large [8, 11]: 90 | Plant response rating, Crabgrass, Large [8, 12]: 100
